Test results reported in patent US10914722B2, “Sensor array and apparatus for simultaneous observation of tissue electrophysiology, contractility, and growth” (Lawrence Livermore National Security, LLC, priority 2017, dated 2021).

Tested on: human induced pluripotent stem cell-derived cardiomyocytes (iPS-CMs)
Assay: simultaneous field potential (MEA), impedance (IDE) and optical recording of cardiac tissue pre-/post-drug exposure and after wash-out
Assay type: cell-based
From the text: Measurements were repeated once more after washing the culture to flush the blebbistatin from the system. FIGS. 7A-7C show the field potential (left) and corresponding impedance changes (right) prior to exposure to blebbistatin (FIG. 7A), after exposure to blebbistatin (FIG. 7B) and following flushing of blebbistatin from the system (FIG. 7C).
Prior to compound addition, the tissue beat spontaneously and rhythmically at a rate of 14 bpm, as shown from both the FP profile and impedance profile of FIG. 7A.
Human iPS-CMs were purchased from Cellular Dynamics International (Madison, Wis.). Cells were stored in liquid nitrogen before use. Prior to cell seeding, device culture chambers were sterilized with 70% ethanol, rinsed with autoclaved water, then incubated overnight with 40 μg/mL fibronectin (Sigma-Aldrich, St Louis, Mo.) at 37° C. Cells were seeded at a density of 120K cells/cm2 and kept in an incubator at 37° C. and 5% CO2. Media was exchanged 4 hrs after seeding, then every 48 hours subsequently.
The MEA was connected via electrical connector(s), preferably OMNETICS™ connectors to an AlphaLab SnR multi-channel recording system (Alpha Omega, Alpharetta, Ga.) to record voltages as a function of time across all 16 electrodes of the MEA. Offline analysis of temporal differences between the 16 electrodes when voltage spikes occur generates an activation map. The activation map illustrates FP spatial propagation in the cardiac tissue monolayer across the surface area of the device.
For measuring cardiac contraction, high-speed impedance time recording was performed using a Keysight E4990A Impedance Analyzer (Keysight Technologies Inc., Santa Rosa, Calif.) and controlled using custom LabVIEW software (National Instruments, Austin, Tex.). For each device, impedance was measured at multiple frequencies between 5 kHz and 200 kHz to determine the frequency range that gives the highest signal-to-noise ratio.
Norepinephrine and blebbistatin were purchased from Sigma-Aldrich (St Louis, Mo., USA). Both drugs were dissolved in 0.1% dimethyl sulfoxide and stored at −20° C. Drugs were diluted to desired concentrations in cell media immediately before use. Prior to drug exposure, pre-drug electrophysiology and contraction data of the cardiac tissues on a device were collected for five minutes. Next, cell media was removed from the chamber on the device, drug was added and device was incubated at 37° C. and 5% CO2 for 15 minutes. Recording was again started with the drug. Afterwards, the drug solution was removed and the culture chamber was rinsed three times with cell media, incubated at 37° C. and 5% CO2 for another 15 minutes before performing drug wash-out measurements.

[1] = after incubation with 10 μM, FIG. 7B

Cc1ccc2c(c1)C(=O)C1(O)CCN(c3ccccc3)C1=N2 (stereo not shown) [blebbistatin]
action potential pattern (MEA data) [1]: not affected
impedance recording (contraction signal, IDE) [1]: flat baseline signal
tissue contraction observed under an optical microscope (after incubation with 10 μM, pre-drug spontaneous beating at 14 bpm, FIG. 7B): static
tissue contractility after washing out (impedance peaks and optical observation) (wash-out after 10 μM exposure, FIG. 7C): restored the tissue contractility
